Laboratory results taken from PubChem BioAssay AID256 (DTP/NCI, 2004).
Several values for one entry are separate records, joined by “and”; a condition that tells them apart may be missing. Identical values can stand only once. Toxic doses and inconclusive results are not listed. Rule for the calls: active = survival T/C of 150% or more; inactive = T/C below 125% in these data.

System: CD2F1 mice, L1210 leukemia ip, survival T/C
Experiment: NCI In Vivo Anticancer Drug Screen. Data for tumor model L1210 Leukemia (intraperitoneal) in CD2F1 (CDF1) mice
Conditions: higher = longer survival
Experimental: The antitumor activity of compounds was measured in mice bearing transplantable tumors. Survival or tumor size were measured and the results are expressed as the measurement made in the treated group (T) divided by the measurement made in the vehicle treated control group (C). The tumor model used in this assay is L1210 Leukemia (intraperitoneal) in CD2F1 (CDF1) mice

[1] = endpoint: mean survival time, dose: 100.0 mg/kg/injection, schedule: Q04DX003 (ip), vehicle: saline with Tween-80
[2] = endpoint: mean survival time, dose: 400.0 mg/kg/injection, schedule: Q04DX003 (ip), vehicle: saline with Tween-80
[3] = endpoint: mean survival time, dose: 200.0 mg/kg/injection, schedule: Q04DX003 (ip), vehicle: saline with Tween-80
[4] = endpoint: mean survival time, dose: 100.0 mg/kg/injection, schedule: Q04DX003 (ip), vehicle: saline
[5] = endpoint: mean survival time, dose: 200.0 mg/kg/injection, schedule: Q04DX003 (ip), vehicle: saline
[6] = endpoint: mean survival time, dose: 400.0 mg/kg/injection, schedule: Q04DX003 (ip), vehicle: saline
[7] = endpoint: mean survival time, dose: 25.0 mg/kg/injection, schedule: Q01DX009 (ip), vehicle: water
[8] = endpoint: mean survival time, dose: 50.0 mg/kg/injection, schedule: Q01DX009 (ip), vehicle: water
[9] = endpoint: mean survival time, dose: 100.0 mg/kg/injection, schedule: Q01DX009 (ip), vehicle: saline with Tween-80
[10] = endpoint: mean survival time, dose: 200.0 mg/kg/injection, schedule: Q01DX009 (ip), vehicle: saline with Tween-80
[11] = endpoint: mean survival time, dose: 400.0 mg/kg/injection, schedule: Q01DX009 (ip), vehicle: saline with Tween-80
[12] = endpoint: mean survival time, dose: 50.0 mg/kg/injection, schedule: Q04DX003 (ip), vehicle: saline with Tween-80
[13] = endpoint: mean survival time, dose: 100.0 mg/kg/injection, schedule: Q04DX002 (ip), vehicle: saline with Tween-80
[14] = endpoint: mean survival time, dose: 200.0 mg/kg/injection, schedule: Q04DX002 (ip), vehicle: saline with Tween-80
[15] = endpoint: mean survival time, dose: 400.0 mg/kg/injection, schedule: Q04DX002 (ip), vehicle: saline with Tween-80
[16] = endpoint: mean survival time, dose: 100.0 mg/kg/injection, schedule: Q01DX001 (ip), vehicle: carboxymethylcellulose (CMC)
[17] = endpoint: mean survival time, dose: 200.0 mg/kg/injection, schedule: Q01DX001 (ip), vehicle: carboxymethylcellulose (CMC)
[18] = endpoint: mean survival time, dose: 100.0 mg/kg/injection, schedule: Q01DX001 (ip), vehicle: saline
[19] = endpoint: mean survival time, dose: 200.0 mg/kg/injection, schedule: Q01DX001 (ip), vehicle: saline

Measured: T/C

C1=C\CCCCCCCC/1
inactive: [1] 100 % of control | [2] 100 % of control

C#CCN(C)/N=N/c1nc[nH]c1C(N)=O
inactive: endpoint: mean survival time, dose: 12.5 mg/kg/injection, schedule: Q01DX009 (ip), vehicle: Klucel (hydroxypropylcellulose) (HPC) 123 % of control | endpoint: mean survival time, dose: 200.0 mg/kg/injection, schedule: Q01DX009 (ip), vehicle: Klucel (hydroxypropylcellulose) (HPC) 98 % of control

CC1CC(=O)C2=C(C1)NC(=O)CC2 (stereo unspecified)
inactive: [1] 90 % of control | [3] 96 % of control | [2] 101 % of control

COc1cc(C)ccc1C1=CCCCCC1
inactive: [4] 93 % of control | [5] 93 % of control | [6] 103 % of control

CNNCCCCC(=O)NC(C)C
inactive: endpoint: mean survival time, dose: 25.0 mg/kg/injection, schedule: Q04DX003 (ip), vehicle: saline 105 % of control | endpoint: mean survival time, dose: 50.0 mg/kg/injection, schedule: Q04DX003 (ip), vehicle: saline 101 % of control | [4] 101 % of control

CN1NC(c2ccccc2)C2CN(C3CCCCC3)C(=O)C21O (stereo unspecified)
inactive: [1] 92 % of control | [3] 88 % of control | [2] 101 % of control

CN(C)c1ccc(/C=C/c2nc(N)nc(N)c2[N+](=O)[O-])cc1
inactive: [7] 98 % of control | [8] 97 % of control | endpoint: mean survival time, dose: 100.0 mg/kg/injection, schedule: Q01DX009 (ip), vehicle: water 97 % of control | endpoint: mean survival time, dose: 200.0 mg/kg/injection, schedule: Q01DX009 (ip), vehicle: water 92 % of control | endpoint: mean survival time, dose: 400.0 mg/kg/injection, schedule: Q01DX009 (ip), vehicle: water 90 % of control

ClC(Cl)c1c2c(cc3c1CCCC3)CCCC2
inactive: [9] 113 % of control | [10] 116 % of control | [11] 102 % of control

O=c1oc(-c2ccc(Cl)cc2)nc2cc(Cl)ccc12
inactive: endpoint: mean survival time, dose: 25.0 mg/kg/injection, schedule: Q04DX003 (ip), vehicle: saline with Tween-80 93 % of control | [12] 93 % of control | [1] 86 % of control and 89 % of control

Cc1c(N=Nc2ccc(N(C)C)cc2)cc[n+]([O-])c1C
inactive: [1] 102 % of control | [3] 110 % of control

O=C1C2C3CCC(O3)C2C(=O)N1CC#CCN1C(=O)C2C3CCC(O3)C2C1=O (stereo unspecified)
inactive: [13] 98 % of control | [14] 98 % of control | [15] 90 % of control

Nc1ccc(S(=O)(=O)O)cc1[N+](=O)[O-]
inactive: endpoint: mean survival time, dose: 100.0 mg/kg/injection, schedule: Q01DX009 (ip), vehicle: saline 92 % of control | endpoint: mean survival time, dose: 200.0 mg/kg/injection, schedule: Q01DX009 (ip), vehicle: saline 97 % of control | endpoint: mean survival time, dose: 400.0 mg/kg/injection, schedule: Q01DX009 (ip), vehicle: saline 101 % of control

CCCN(CCC)CC(=O)c1ccc2cc(Br)c3ccccc3c2c1
inactive: [4] 92 % of control | [5] 91 % of control | [6] 89 % of control

CCOCC(=O)CC(C)C
inactive: endpoint: mean survival time, dose: 100.0 mg/kg/injection, schedule: Q04DX003 (ip), vehicle: other 100 % of control | endpoint: mean survival time, dose: 200.0 mg/kg/injection, schedule: Q04DX003 (ip), vehicle: other 91 % of control | endpoint: mean survival time, dose: 400.0 mg/kg/injection, schedule: Q04DX003 (ip), vehicle: other 100 % of control

CC(CC(C)(C)C)O[Si](C)C1(C)CCCCC1 (stereo unspecified)
inactive: [1] 102 % of control | [3] 112 % of control | [2] 106 % of control

Nc1ccn(CCC(COCc2ccccc2)COCc2ccccc2)c(=O)n1
inactive: endpoint: mean survival time, dose: 100.0 mg/kg/injection, schedule: Q04DX003 (ip), vehicle: Klucel (hydroxypropylcellulose) (HPC) 100 % of control | endpoint: mean survival time, dose: 200.0 mg/kg/injection, schedule: Q04DX003 (ip), vehicle: Klucel (hydroxypropylcellulose) (HPC) 96 % of control | endpoint: mean survival time, dose: 400.0 mg/kg/injection, schedule: Q04DX003 (ip), vehicle: Klucel (hydroxypropylcellulose) (HPC) 96 % of control

CN(C)C1CC2C=CC1C1C=CC21 (stereo unspecified)
inactive: endpoint: mean survival time, dose: 6.25 mg/kg/injection, schedule: Q01DX009 (ip), vehicle: water 100 % of control | endpoint: mean survival time, dose: 12.5 mg/kg/injection, schedule: Q01DX009 (ip), vehicle: water 97 % of control | [7] 101 % of control | [8] 103 % of control

NC(=O)N/N=C/C(c1ccccc1)c1ccccc1
inactive: [9] 105 % of control | [10] 94 % of control | [11] 103 % of control

COCc1nnc2nc[nH]c(=O)c2n1
inactive: [16] 98 % of control | [17] 101 % of control

Cc1nc2c(=O)n(C3OC(CO)C(O)C3O)cnc2o1 (stereo unspecified)
inactive: endpoint: mean survival time, dose: 100.0 mg/kg/injection, schedule: Q01DX005 (ip), vehicle: saline 103 % of control

CC(C)(C)c1cc2c3c(c1)Oc1cc(C(C)(C)C)cc4c1C3(O)c1c(cc(C(C)(C)C)cc1O4)O2
inactive: endpoint: median survival time, dose: 3.12 mg/kg/injection, schedule: Q01DX009 (ip), vehicle: Klucel (hydroxypropylcellulose) (HPC) 107 % of control | endpoint: median survival time, dose: 6.25 mg/kg/injection, schedule: Q01DX009 (ip), vehicle: Klucel (hydroxypropylcellulose) (HPC) 112 % of control | endpoint: median survival time, dose: 12.5 mg/kg/injection, schedule: Q01DX009 (ip), vehicle: Klucel (hydroxypropylcellulose) (HPC) 104 % of control

OCC1CCCCCCC1
inactive: endpoint: mean survival time, dose: 50.0 mg/kg/injection, schedule: Q01DX001 (ip), vehicle: carboxymethylcellulose (CMC) 100 % of control | [16] 100 % of control | [17] 102 % of control | endpoint: mean survival time, dose: 400.0 mg/kg/injection, schedule: Q01DX001 (ip), vehicle: carboxymethylcellulose (CMC) 96 % of control

CC(C)NC(=O)C1CC2c3cccc4[nH]cc(c34)CC2N(C)C1 (stereo unspecified)
inactive: endpoint: mean survival time, dose: 25.0 mg/kg/injection, schedule: Q01DX009 (ip), vehicle: saline with Tween-80 101 % of control | endpoint: mean survival time, dose: 50.0 mg/kg/injection, schedule: Q01DX009 (ip), vehicle: saline with Tween-80 98 % of control | [12] 96 % of control | [9] 102 % of control | [1] 105 % of control

CC1(C)CC(=O)C=C(NCc2ccccc2)C1
inactive: [1] 93 % of control | [3] 91 % of control

Cc1ccc(C(=O)/C=C/c2ccc(N(C)C)cc2)cc1
inactive: [1] 87 % of control | [3] 87 % of control | [2] 89 % of control

CN(C)c1ccc(-c2cc(C(=O)O)c3cc(I)ccc3n2)c(Cl)c1
inactive: endpoint: mean survival time, dose: 75.0 mg/kg/injection, schedule: Q01DX009 (ip), vehicle: saline 100 % of control | endpoint: mean survival time, dose: 75.0 mg/kg/injection, schedule: Q04DX003 (ip), vehicle: saline 92 % of control | endpoint: mean survival time, dose: 150.0 mg/kg/injection, schedule: Q01DX009 (ip), vehicle: saline 94 % of control | endpoint: mean survival time, dose: 150.0 mg/kg/injection, schedule: Q04DX003 (ip), vehicle: saline 93 % of control | endpoint: mean survival time, dose: 300.0 mg/kg/injection, schedule: Q01DX009 (ip), vehicle: saline 98 % of control | endpoint: mean survival time, dose: 300.0 mg/kg/injection, schedule: Q04DX003 (ip), vehicle: saline 110 % of control

O=c1[nH]c(N[N+](=O)[O-])nc(-c2ccccc2)c1Br
inactive: [13] 103 % of control | [14] 100 % of control | [15] 92 % of control

NCC1CCCCO1 (stereo unspecified)
inactive: endpoint: mean survival time, dose: 50.0 mg/kg/injection, schedule: Q01DX001 (ip), vehicle: saline 90 % of control | [18] 98 % of control | [19] 93 % of control

O=Cc1cc(C(=O)O)ccc1O
inactive: [18] 100 % of control | [19] 97 % of control | endpoint: mean survival time, dose: 400.0 mg/kg/injection, schedule: Q01DX001 (ip), vehicle: saline 94 % of control

CCc1c2c(nc3ccc(OC(=O)N4CCC(N5CCCCC5)CC4)cc13)-c1cc3c(c(=O)n1C2)COC(=O)[C@]3(O)CC
active: endpoint: median survival time, dose: 26.4 mg/kg/injection, schedule: Q04HX004 (iv), vehicle: water 177 % of control | endpoint: median survival time, dose: 39.6 mg/kg/injection, schedule: Q04DX002 (ip), vehicle: water 206 % of control | endpoint: median survival time, dose: 39.6 mg/kg/injection, schedule: Q04HX004 (iv), vehicle: water 192 % of control | endpoint: median survival time, dose: 59.3 mg/kg/injection, schedule: Q04DX002 (ip), vehicle: water 231 % of control | endpoint: median survival time, dose: 59.3 mg/kg/injection, schedule: Q04HX004 (iv), vehicle: water 193 % of control | endpoint: median survival time, dose: 89.0 mg/kg/injection, schedule: Q04DX002 (ip), vehicle: water 500 % of control | endpoint: median survival time, dose: 89.0 mg/kg/injection, schedule: Q04HX004 (iv), vehicle: water 209 % of control
